Reference: patent US9029396B2, “Substituted indole derivatives” (Novartis AG, priority 2011, dated 2015)
≈ marks a conversion by molar mass, not a printed value.

Key:
[1] = Dog pharmacokinetics after oral administration of compound of example No. 3 (mono acetate salt); format: in vivo, Beagle dogs; details: blood
Description: Compound of Example No. 3 was administered orally as the mono acetate salt in a hard gelatine capsule to 6 fasted male Beagle dogs. A nominal dose of 100 mg/dog was given, resulting in dose of 8.9-11.3 mg/kg (weight of the dogs ranging from 8.9-11.3 kg). Blood was taken by venipuncture, and sampling was performed up to 32 h. Bioanalytic determination was performed for 3 and is tabulated below:
Key pharmacokinetic parameters (mean values or range) for compound No. 3 after oral dosing as described above.

[2] = Solubility in simulated gastric and intestinal fluids; format: physicochemical; details: Free Form
Excerpt: Solubility of compound Example No. 1 in simulated gastric and in simulated intestinal fluids at room temperature
Solubility of compound Example No. 3 (free form/acetate salt form) in simulated gastric fluids: […]

PKC-alpha = target: T1, PKC-alpha (Homo sapiens, UniProt P17252); assay: Protein kinase C alpha assay (Caliper mobility shift); format: biochemical; details: full length human recombinant enzyme, 17 μM ATP; read-out: PKCα (IC50 in nM)
T1 construct: Both enzymes were full length human recombinant protein expressed in insect cells; purchased Invitrogen AG, Basel, Switzerland; host or cells: insect cells
Description: (§1) The compounds of the invention were tested for their activity on different PKC isotypes according to the following method. All assays were performed in 384 well microtiter plates. Each assay plate contained 8-point serial dilutions for 40 test compounds, as well as two 16-point serial dilutions of staurosporine as reference compound, plus 16 high- and 16 low controls. Liquid handling and incubation steps were done on a automated workstation equipped with a Innovadyne Nanodrop Express.
(§2) The assay plates were prepared by addition of 50 nL per well of compound solution in 90% DMSO. The kinase reactions were started by stepwise addition of 4.5 μl per well of a 2× peptide/ATP-solution and 4.5 μl per well of a 2× enzyme solution. The final concentration of reagents during kinase reaction were: 50 mM HEPES, pH 7.5, 1 mM DTT, 0.02% Tween20, 0.02% BSA, 0.6% DMSO, 10 mM beta-glycerophosphate, and 10 μM sodium orthovanadate. The peptide substrate used in the PKC-alpha and PKC-theta assays was Dy495-X5-ME-Mpr-RFARKGSLRQKNV-COOH. […]
(§3) Plates with terminated kinase reactions were transferred to the Caliper LC3000 workstations for reading. Phosphorylated and unphosphorylated peptides were separated using the Caliper microfluidic mobility shift technology and Kinase activities were calculated from the amounts of formed phospho-peptide.

[3] = Dog pharmacokinetics after oral administration of compound of example No. 1; format: in vivo, Beagle dogs; details: dog, blood
Description: A single dose of the compound of example 1 (3.0 mg/kg) was administered p.o. to 3 male Beagle dogs. Compound 1 was dosed as an aqueous suspension of the crystalline monohydrate form in Methylcellulose (0.5%): Tween 80 (1%) (90:10). Blood was taken in regular intervals by venipuncture, and the samples were analyzed for a period of up to 24 hours. The compounds of the examples 1, 2, and 3 were quantitatively assessed over time, and the results are tabulated below:
Key pharmacokinetic parameters (mean values±standard deviations (n=3) for 1, 2 and 3 after oral dosing of example No. 1.

[4] = Stability in gastric and intestinal simulated fluids at 37° C.; format: physicochemical
Description: Stability Assessments Stability of Cpd. Example No. 1 in Gastric and Intestinal Simulated Fluids at 37° C.:
Stability of compound Example No. 3
(Free form/acetate salt form) in gastric and intestinal simulated fluids at 37° C.: […]

PKC-theta = target: T2, PKC-theta (Homo sapiens, UniProt Q04759); assay: Protein kinase C theta assay (Caliper mobility shift); format: biochemical; details: full length human recombinant enzyme, 70 μM ATP; read-out: PKCθ (IC50 in nM)
T2 construct: Both enzymes were full length human recombinant protein expressed in insect cells; purchased Invitrogen AG, Basel, Switzerland; host or cells: insect cells
Description: as §1, §2, §3

T2 sequence (Q04759 whole entry): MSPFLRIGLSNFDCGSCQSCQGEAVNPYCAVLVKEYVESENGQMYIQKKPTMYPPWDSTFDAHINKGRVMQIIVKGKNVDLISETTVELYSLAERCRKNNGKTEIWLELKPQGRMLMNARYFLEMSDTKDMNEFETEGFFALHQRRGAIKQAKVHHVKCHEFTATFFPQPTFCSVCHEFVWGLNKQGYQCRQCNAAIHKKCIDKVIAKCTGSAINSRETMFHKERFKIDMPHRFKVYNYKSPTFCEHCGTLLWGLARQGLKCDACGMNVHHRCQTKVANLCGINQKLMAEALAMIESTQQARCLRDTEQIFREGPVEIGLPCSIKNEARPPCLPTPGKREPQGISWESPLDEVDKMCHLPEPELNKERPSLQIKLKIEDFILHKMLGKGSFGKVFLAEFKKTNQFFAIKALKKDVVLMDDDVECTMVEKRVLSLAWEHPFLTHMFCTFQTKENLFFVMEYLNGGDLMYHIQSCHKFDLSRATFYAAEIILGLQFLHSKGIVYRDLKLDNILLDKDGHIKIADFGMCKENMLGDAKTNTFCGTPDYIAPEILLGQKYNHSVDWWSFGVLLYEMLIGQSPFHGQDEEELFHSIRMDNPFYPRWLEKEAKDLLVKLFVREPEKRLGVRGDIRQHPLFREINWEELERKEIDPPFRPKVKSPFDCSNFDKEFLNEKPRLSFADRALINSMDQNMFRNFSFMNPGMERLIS

## Cc1cccc2c(C3=C(c4nc(N5CCNC6(CC6)C5)cc5ccccc45)C(=O)NC3=O)c[nH]c12 [Example 3, 3-[3-(4,7-diaza-spiro[2.5]oct-7-yl)-isoquinolin-1-yl]-4-(7-methyl-1H-indol-3-yl)-pyrrole-2,5-dione]
[1]; po, fasted male Beagle dogs, example No. 3 mono acetate salt p.o. 100 mg/dog, 0.5 h
  concentration at 0.5 h: 936 nM
[1]; po, fasted male Beagle dogs, example No. 3 mono acetate salt p.o. 100 mg/dog, 1 h
  concentration at 1 h: 2160 nM
[1]; po, fasted male Beagle dogs, example No. 3 mono acetate salt p.o. 100 mg/dog, 2 h
  concentration at 2 h: 2550 nM
[1]; po, fasted male Beagle dogs, example No. 3 mono acetate salt p.o. 100 mg/dog, 3 h
  concentration at 3 h: 2000 nM
[1]; po, fasted male Beagle dogs, example No. 3 mono acetate salt p.o. 100 mg/dog, 4 h
  concentration at 4 h: 1900 nM
[1]; po, fasted male Beagle dogs, example No. 3 mono acetate salt p.o. 100 mg/dog, 6 h
  concentration at 6 h: 1490 nM
[1]; po, fasted male Beagle dogs, example No. 3 mono acetate salt p.o. 100 mg/dog, 8 h
  concentration at 8 h: 1240 nM
[1]; po, fasted male Beagle dogs, example No. 3 mono acetate salt p.o. 100 mg/dog, 24 h
  concentration at 24 h: 276 nM
[1]; po, fasted male Beagle dogs, example No. 3 mono acetate salt p.o. 100 mg/dog, 32 h
  concentration at 32 h: 116 nM
[1]; po, fasted male Beagle dogs, example No. 3 mono acetate salt, capsule p.o. 100 mg/dog, 0.25 h
  concentration at 0.25 h: 177 nM
[1]; male, Beagle, dog, 100 mg, range, after oral dosing of example No. 3 mono acetate salt to dogs
  Tmax: 30 to 120 min
[2]; FaSSIF pH 6.5
  solubility: 30 µg/mL (≈ 64.7 µM)
[2]; FeSSIF pH 5.8
  solubility: 280 µg/mL (≈ 604 µM)
[2]; simulated gastric fluid, SGF pH 2
  solubility: 120 µg/mL (≈ 259 µM)
PKC-alpha
  IC50: 0.4 nM
[3]; po, male Beagle dogs, example 1 3.0 mg/kg p.o. (crystalline monohydrate suspension), 0.083 h
  concentration at 0.083 h: 15 nM
[3]; po, male Beagle dogs, example 1 3.0 mg/kg p.o., 0.25 h
  concentration at 0.25 h: 167 nM
[3]; po, male Beagle dogs, example 1 3.0 mg/kg p.o., 0.5 h
  concentration at 0.5 h: 757 nM
[3]; po, male Beagle dogs, example 1 3.0 mg/kg p.o., 0.75 h
  concentration at 0.75 h: 1200 nM
[3]; po, male Beagle dogs, example 1 3.0 mg/kg p.o., 1 h
  concentration at 1 h: 1310 nM
[3]; po, male Beagle dogs, example 1 3.0 mg/kg p.o., 2 h
  concentration at 2 h: 1120 nM
[3]; po, male Beagle dogs, example 1 3.0 mg/kg p.o., 3 h
  concentration at 3 h: 959 nM
[3]; po, male Beagle dogs, example 1 3.0 mg/kg p.o., 4 h
  concentration at 4 h: 762 nM
[3]; po, male Beagle dogs, example 1 3.0 mg/kg p.o., 7 h
  concentration at 7 h: 403 nM
[3]; po, male Beagle dogs, example 1 3.0 mg/kg p.o., 24 h
  concentration at 24 h: 67.9 nM
[3]; male, Beagle, 3 mg/kg, mean ± SD (n=3), after oral dosing of example No. 1 to dogs
  Tmax: 54 ± 6 min
[4]; Acetate Salt, FaSSIF pH 6.5, 37° C., 0 hours
  Amount in Area % of compound example No. 3: 100 Area %
[4]; Acetate Salt, FaSSIF pH 6.5, 37° C., 1 hours
  Amount in Area % of compound example No. 3: 98.6 Area %
[4]; Acetate Salt, FaSSIF pH 6.5, 37° C., 2.5 hours
  Amount in Area % of compound example No. 3: 98.7 Area %
[4]; Acetate Salt, FaSSIF pH 6.5, 37° C., 4 hours
  Amount in Area % of compound example No. 3: 95.1 Area %
[4]; Acetate Salt, FaSSIF pH 6.5, 37° C., 7 hours
  Amount in Area % of compound example No. 3: 88.5 Area %
[4]; Acetate Salt, FeSSIF pH 5.8, 37° C., 0 hours
  Amount in Area % of compound example No. 3: 100 Area %
[4]; Acetate Salt, FeSSIF pH 5.8, 37° C., 1 hours
  Amount in Area % of compound example No. 3: 99.1 Area %
[4]; Acetate Salt, FeSSIF pH 5.8, 37° C., 2.5 hours
  Amount in Area % of compound example No. 3: 98.9 Area %
[4]; Acetate Salt, FeSSIF pH 5.8, 37° C., 4 hours
  Amount in Area % of compound example No. 3: 98 Area %
[4]; Acetate Salt, FeSSIF pH 5.8, 37° C., 7 hours
  Amount in Area % of compound example No. 3: 97.5 Area %
[4]; Acetate Salt, SGF pH 2, 37° C., 0 hours
  Amount in Area % of compound example No. 3: 100 Area %
[4]; Acetate Salt, SGF pH 2, 37° C., 1 hours
  Amount in Area % of compound example No. 3: 96.4 Area %
[4]; Acetate Salt, SGF pH 2, 37° C., 2.5 hours
  Amount in Area % of compound example No. 3: 93.2 Area %
[4]; Acetate Salt, SGF pH 2, 37° C., 4 hours
  Amount in Area % of compound example No. 3: 92.4 Area %
[4]; Acetate Salt, SGF pH 2, 37° C., 7 hours
  Amount in Area % of compound example No. 3: 90.0 Area %
[4]; Free Form, FaSSIF pH 6.5, 37° C., 0 hours
  Amount in Area % of compound example No. 3: 100 Area %
[4]; Free Form, FaSSIF pH 6.5, 37° C., 1 hours
  Amount in Area % of compound example No. 3: 100 Area %
[4]; Free Form, FaSSIF pH 6.5, 37° C., 2.5 hours
  Amount in Area % of compound example No. 3: 100 Area %
[4]; Free Form, FaSSIF pH 6.5, 37° C., 4 hours
  Amount in Area % of compound example No. 3: 90.7 Area %
[4]; Free Form, FaSSIF pH 6.5, 37° C., 7 hours
  Amount in Area % of compound example No. 3: 82.5 Area %
[4]; Free Form, FeSSIF pH 5.8, 37° C., 0 hours
  Amount in Area % of compound example No. 3: 100 Area %
[4]; Free Form, FeSSIF pH 5.8, 37° C., 1 hours
  Amount in Area % of compound example No. 3: 100 Area %
[4]; Free Form, FeSSIF pH 5.8, 37° C., 2.5 hours
  Amount in Area % of compound example No. 3: 100 Area %
[4]; Free Form, FeSSIF pH 5.8, 37° C., 4 hours
  Amount in Area % of compound example No. 3: 99.2 Area %
[4]; Free Form, FeSSIF pH 5.8, 37° C., 7 hours
  Amount in Area % of compound example No. 3: 98.7 Area %
[4]; Free Form, SGF pH 2, 37° C., 0 hours
  Amount in Area % of compound example No. 3: 98.8 Area %
[4]; Free Form, SGF pH 2, 37° C., 1 hours
  Amount in Area % of compound example No. 3: 98.6 Area %
[4]; Free Form, SGF pH 2, 37° C., 2.5 hours
  Amount in Area % of compound example No. 3: 98.1 Area %
[4]; Free Form, SGF pH 2, 37° C., 4 hours
  Amount in Area % of compound example No. 3: 97.9 Area %
[4]; Free Form, SGF pH 2, 37° C., 7 hours
  Amount in Area % of compound example No. 3: 97.9 Area %
PKC-theta
  IC50: 0.2 nM
